Source: patent publication US12077503B2, “Substituted cyclic amides and their use as herbicides” (FMC CORPORATION, priority 2015, dated 2024)

How the values were obtained:
Format in all cases: in vivo
[1] = system: ragweed (common ragweed, Ambrosia elatior); assay: Test A postemergence
Procedure, shortened: (§1)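 Preemergence directed soil spray on seeded pots, or postemergence application to plants 2–10 cm, one- to two-leaf. Solvent mixture non-phytotoxic, with surfactant. Scored ~10 d later, visually, 0–100 vs untreated.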

[2] = system: giant foxtail (Setaria faberii); assay: Test A postemergence
Procedure, shortened: as §1

[3] = system: pigweed (Amaranthus retroflexus); assay: Test A postemergence
Procedure, shortened: as §1

Kochia (Kochia scoparia) [4] = assay: Test A postemergence
Procedure, shortened: as §1

[5] = system: ryegrass, Italian (Italian ryegrass, Lolium multiflorum); assay: Test A postemergence
Procedure, shortened: as §1

corn (Zea mays) = assay: Test A postemergence
Procedure, shortened: as §1

[6] = system: wheat (Triticum aestivum); assay: Test A postemergence
Procedure, shortened: as §1

[7] = system: barnyardgrass (Echinochloa crus-galli); assay: Test A postemergence
Procedure, shortened: as §1

[8] = system: Galium (catchweed bedstraw, Galium aparine); assay: Test A postemergence
Procedure, shortened: as §1

[9] = system: blackgrass (Alopecurus myosuroides); assay: Test A postemergence
Procedure, shortened: as §1

rice (Oryra sativa) = assay: Test B flooded paddy test; conditions: 250 g ai/ha, Flood, 0 to 100 scale where 0 is no effect and 100 is complete control
Procedure, shortened: (§2)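 Greenhouse paddy pots with 2-leaf stage plants received compound by direct addition to floodwater 3 cm deep, kept at that level. Scored visually at 13–15 d versus controls (0 no effect; 100 complete control).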

[10] = system: ducksalad (Heteranthera limosa); assay: Test B flooded paddy test; conditions: 250 g ai/ha, Flood, 0 to 100 scale where 0 is no effect and 100 is complete control
Procedure, shortened: as §2

[11] = system: sedge, umbrella (small-flower umbrella sedge, Cyperus difformis); assay: Test B flooded paddy test; conditions: 250 g ai/ha, Flood, 0 to 100 scale where 0 is no effect and 100 is complete control
Procedure, shortened: as §2

[12] = system: barnyardgrass (Echinochloa crus-galli); assay: Test B flooded paddy test; conditions: 250 g ai/ha, Flood, 0 to 100 scale where 0 is no effect and 100 is complete control
Procedure, shortened: as §2

[13] = system: ragweed (common ragweed, Ambrosia elatior); assay: Test A preemergence
Procedure, shortened: as §1

[14] = system: giant foxtail (Setaria faberii); assay: Test A preemergence
Procedure, shortened: as §1

[15] = system: pigweed (Amaranthus retroflexus); assay: Test A preemergence
Kochia (Kochia scoparia) [16] = assay: Test A preemergence
Procedure, shortened: as §1

[17] = system: ryegrass, Italian (Italian ryegrass, Lolium multiflorum); assay: Test A preemergence
Procedure, shortened: as §1

[18] = system: barnyardgrass (Echinochloa crus-galli); assay: Test A preemergence
Procedure, shortened: as §1

[19] = 125 g ai/ha, postemergence, visual injury rating on 0 to 100 scale (0 no effect, 100 complete control), approx. 10 d
[20] = 500 g ai/ha, postemergence, 0 to 100 scale, 0 no effect, 100 complete control
[21] = Postemergence, 125 g ai/ha, visual injury, 0 to 100 scale (0 no effect, 100 complete control), approx. 10 d
[22] = 125 g ai/ha, preemergence, 0 to 100 scale (0 no effect, 100 complete control)
[23] = Preemergence, 500 g ai/ha, 0 is no effect, 100 is complete control

## COCc1ccccc1NC(=O)[C@H]1C(=O)N(C)C[C@@H]1c1cccc(C(F)(F)F)c1 (racemic) [Compound 1060]
[1]; Ambrosia artemisiifolia, post-emergence, 240 h, 125 g ai/ha, postemergence, visual injury on 0 to 100 scale (0 no effect, 100 complete control), approx. 10 d, read-out: Ragweed plant response rating
  pest or weed control at 125 g/ha: 30%
[1]; Ambrosia artemisiifolia, post-emergence, 240 h, Postemergence, 31 g ai/ha, visual injury after approx. 10 d, 0 to 100 scale, 0 no effect, 100 complete control, read-out: Plant response rating, Ragweed
  pest or weed control at 31 g/ha: 0%
[2]; Setaria faberi, post-emergence, 240 h, 125 g ai/ha, postemergence, visual injury on 0 to 100 scale (0 no effect, 100 complete control), approx. 10 d, read-out: Foxtail, Giant plant response rating
  pest or weed control at 125 g/ha: 90%
[2]; Setaria faberi, post-emergence, 240 h, Postemergence, 31 g ai/ha, visual injury after approx. 10 d, 0 to 100 scale, 0 no effect, 100 complete control, read-out: Plant response rating, Foxtail, Giant
  pest or weed control at 31 g/ha: 90%
[3]; Amaranthus retroflexus, post-emergence, 240 h, 125 g ai/ha, postemergence, visual injury on 0 to 100 scale (0 no effect, 100 complete control), approx. 10 d, read-out: Pigweed plant response rating
  pest or weed control at 125 g/ha: 0%
[3]; Amaranthus retroflexus, post-emergence, 240 h, Postemergence, 31 g ai/ha, visual injury after approx. 10 d, 0 to 100 scale, 0 no effect, 100 complete control, read-out: Plant response rating, Pigweed
  pest or weed control at 31 g/ha: 0%
Kochia (Kochia scoparia) [4]; Bassia scoparia, post-emergence, 240 h, 125 g ai/ha, postemergence, visual injury on 0 to 100 scale (0 no effect, 100 complete control), approx. 10 d, read-out: Kochia plant response rating
  pest or weed control at 125 g/ha: 0%
Kochia (Kochia scoparia) [4]; Bassia scoparia, post-emergence, 240 h, Postemergence, 31 g ai/ha, visual injury after approx. 10 d, 0 to 100 scale, 0 no effect, 100 complete control, read-out: Plant response rating, Kochia
  pest or weed control at 31 g/ha: 0%
[5]; Lolium multiflorum, post-emergence, 240 h, 125 g ai/ha, postemergence, visual injury on 0 to 100 scale (0 no effect, 100 complete control), approx. 10 d, read-out: Ryegrass, Italian plant response rating
  pest or weed control at 125 g/ha: 50%
[5]; Lolium multiflorum, post-emergence, 240 h, Postemergence, 31 g ai/ha, visual injury after approx. 10 d, 0 to 100 scale, 0 no effect, 100 complete control, read-out: Plant response rating, Ryegrass, Italian
  pest or weed control at 31 g/ha: 50%
Corn (Zea mays); Zea mays, post-emergence, 240 h, 125 g ai/ha, postemergence, visual injury on 0 to 100 scale (0 no effect, 100 complete control), approx. 10 d, read-out: Corn plant response rating
  plant injury at 125 g/ha: 90%
Corn (Zea mays); Zea mays, post-emergence, 240 h, Postemergence, 31 g ai/ha, visual injury after approx. 10 d, 0 to 100 scale, 0 no effect, 100 complete control
  Corn plant response rating (crop injury, 0 = no effect, 100 = complete kill) at 31 g/ha: 70%
[6]; Triticum aestivum, post-emergence, 240 h, 125 g ai/ha, postemergence, visual injury on 0 to 100 scale (0 no effect, 100 complete control), approx. 10 d, read-out: Wheat plant response rating
  plant injury at 125 g/ha: 70%
[6]; Triticum aestivum, post-emergence, 240 h, Postemergence, 31 g ai/ha, visual injury after approx. 10 d, 0 to 100 scale, 0 no effect, 100 complete control, read-out: Plant response rating, Wheat
  plant injury at 31 g/ha: 30%
[7]; Echinochloa crus-galli, post-emergence, 240 h, 125 g ai/ha, postemergence, visual injury on 0 to 100 scale (0 no effect, 100 complete control), approx. 10 d, read-out: Barnyardgrass plant response rating
  pest or weed control at 125 g/ha: 100%
[7]; Echinochloa crus-galli, post-emergence, 240 h, Postemergence, 31 g ai/ha, visual injury after approx. 10 d, 0 to 100 scale, 0 no effect, 100 complete control, read-out: Plant response rating, Barnyardgrass
  pest or weed control at 31 g/ha: 90%
[8]; Galium, post-emergence, 240 h, 125 g ai/ha, postemergence, visual injury on 0 to 100 scale (0 no effect, 100 complete control), approx. 10 d, read-out: Galium plant response rating
  pest or weed control at 125 g/ha: 40%
[8]; Galium, post-emergence, 240 h, Postemergence, 31 g ai/ha, visual injury after approx. 10 d, 0 to 100 scale, 0 no effect, 100 complete control, read-out: Plant response rating, Galium
  pest or weed control at 31 g/ha: 0%
[9]; Alopecurus myosuroides, post-emergence, 240 h, 125 g ai/ha, postemergence, visual injury on 0 to 100 scale (0 no effect, 100 complete control), approx. 10 d, read-out: Blackgrass plant response rating
  pest or weed control at 125 g/ha: 60%
[9]; Alopecurus myosuroides, post-emergence, 240 h, Postemergence, 31 g ai/ha, visual injury after approx. 10 d, 0 to 100 scale, 0 no effect, 100 complete control, read-out: Plant response rating, Blackgrass
  pest or weed control at 31 g/ha: 50%
Rice (Oryra sativa); Oryza sativa, read-out: Rice plant response rating
  pest or weed control at 250 g/ha: 20%
[10]; Heteranthera limosa, read-out: Ducksalad plant response rating
  pest or weed control at 250 g/ha: 90%
[11]; Cyperus difformis, read-out: Sedge, Umbrella plant response rating
  pest or weed control at 250 g/ha: 0%
[12]; Echinochloa crus-galli, read-out: Barnyardgrass plant response rating
  pest or weed control at 250 g/ha: 75%
[13]; Ambrosia artemisiifolia, pre-emergence, 240 h, 31 g ai/ha, Preemergence, 0 to 100 scale where 0 is no effect and 100 is complete control, read-out: Ragweed plant response rating
  pest or weed control at 31 g/ha: 0%
[13]; Ambrosia artemisiifolia, pre-emergence, 240 h, 125 g ai/ha, preemergence, 0 to 100 scale where 0 is no effect and 100 is complete control, approx. 10 d, read-out: Ragweed plant response rating
  pest or weed control at 125 g/ha: 30%
[14]; Setaria faberi, pre-emergence, 240 h, 125 g ai/ha, Preemergence, visual injury rating after approximately 10 d, read-out: Foxtail, Giant plant response rating (0 to 100 scale, 0 is no effect, 100 is complete control)
  pest or weed control at 125 g/ha: 100%
[14]; Setaria faberi, pre-emergence, 240 h, Preemergence, 31 g ai/ha, 0 to 100 scale (0 no effect, 100 complete control), read-out: Plant response rating, Foxtail, Giant
  pest or weed control at 31 g/ha: 90%
[15]; Amaranthus retroflexus, pre-emergence, 240 h, 31 g ai/ha, Preemergence, 0 to 100 scale where 0 is no effect and 100 is complete control, read-out: Pigweed plant response rating
  pest or weed control at 31 g/ha: 0%
[15]; Amaranthus retroflexus, pre-emergence, 240 h, 125 g ai/ha, preemergence, 0 to 100 scale where 0 is no effect and 100 is complete control, approx. 10 d, read-out: Pigweed plant response rating
  pest or weed control at 125 g/ha: 30%
Kochia (Kochia scoparia) [16]; Bassia scoparia, pre-emergence, 240 h, 31 g ai/ha, Preemergence, 0 to 100 scale where 0 is no effect and 100 is complete control, read-out: Kochia plant response rating
  pest or weed control at 31 g/ha: 0%
Kochia (Kochia scoparia) [16]; Bassia scoparia, pre-emergence, 240 h, 125 g ai/ha, preemergence, 0 to 100 scale where 0 is no effect and 100 is complete control, approx. 10 d, read-out: Kochia plant response rating
  pest or weed control at 125 g/ha: 0%
[17]; Lolium multiflorum, pre-emergence, 240 h, 31 g ai/ha, Preemergence, 0 to 100 scale where 0 is no effect and 100 is complete control, read-out: Ryegrass, Italian plant response rating
  pest or weed control at 31 g/ha: 50%
[17]; Lolium multiflorum, pre-emergence, 240 h, 125 g ai/ha, preemergence, 0 to 100 scale where 0 is no effect and 100 is complete control, approx. 10 d, read-out: Ryegrass, Italian plant response rating
  pest or weed control at 125 g/ha: 60%
[18]; Echinochloa crus-galli, pre-emergence, 240 h, 125 g ai/ha, Preemergence, visual injury rating after approximately 10 d, read-out: Barnyardgrass plant response rating (0 to 100 scale, 0 is no effect, 100 is complete control)
  pest or weed control at 125 g/ha: 100%
[18]; Echinochloa crus-galli, pre-emergence, 240 h, Preemergence, 31 g ai/ha, 0 to 100 scale (0 no effect, 100 complete control), read-out: Plant response rating, Barnyardgrass
  pest or weed control at 31 g/ha: 90%

## CN1CC(c2cccc(OC(F)(F)C(F)F)c2)C(C(=O)Nc2ccc(F)cc2F)C1=O (stereo not drawn) [Compound 393]
[1]; [19]
  Ragweed plant response rating: 0
[1]; [20]
  Plant response rating, Ragweed: 0
[2]; [19]
  Foxtail, Giant plant response rating: 90
[2]; [20]
  Plant response rating, Foxtail, Giant: 90
[3]; [19]
  Pigweed plant response rating: 50
[3]; [20]
  Plant response rating, Pigweed: 70
Kochia (Kochia scoparia) [4]; [19]
  Kochia plant response rating: 60
Kochia (Kochia scoparia) [4]; [20]
  Plant response rating, Kochia: 60
[5]; [19]
  Ryegrass, Italian plant response rating: 40
[5]; [20]
  Plant response rating, Ryegrass, Italian: 70
Corn (Zea mays); [19]
  Corn plant response rating: 80
Corn (Zea mays); [20]
  Plant response rating, Corn: 80
[6]; [19]
  Wheat plant response rating: 20
[6]; [20]
  Plant response rating, Wheat: 70
[7]; [20]
  Plant response rating, Barnyardgrass: 90
[7]; [21]
  Plant response rating, Barnyardgrass: 80
[8]; [19]
  Galium plant response rating: 70
[8]; [20]
  Plant response rating, Galium: 70
[9]; [20]
  Plant response rating, Blackgrass: 70
[9]; [21]
  Plant response rating, Blackgrass: 60
Rice (Oryra sativa); 13 to 15 d
  Plant response rating, Rice: 0
[10]; 13 to 15 d
  Plant response rating, Ducksalad: 90
[11]; 13 to 15 d
  Plant response rating, Sedge, Umbrella: 0
[12]; 13 to 15 d
  Plant response rating, Barnyardgrass: 65
[13]; [22]
  Plant response rating, Ragweed: 0
[13]; [23]
  Ragweed plant response rating (0 to 100 scale): 70
[14]; [22]
  Plant response rating, Foxtail, Giant: 90
[14]; [23]
  Foxtail, Giant plant response rating (0 to 100 scale): 90
[15]; [22]
  Plant response rating, Pigweed: 50
[15]; [23]
  Pigweed plant response rating (0 to 100 scale): 70
Kochia (Kochia scoparia) [16]; [22]
  Plant response rating, Kochia: 60
Kochia (Kochia scoparia) [16]; [23]
  Kochia plant response rating (0 to 100 scale): 50
[17]; [22]
  Plant response rating, Ryegrass, Italian: 20
[17]; [23]
  Ryegrass, Italian plant response rating (0 to 100 scale): 50
[18]; [22]
  Plant response rating, Barnyardgrass: 90
[18]; [23]
  Barnyardgrass plant response rating (0 to 100 scale): 90
